# Test system: MV-4-11 cells
# Test: Gene expression microarray analysis (Affymetrix PrimeView) and GSEA
# Type: cell-based, human
# Parameters: RFU PODN (11730768_x_at) / Fold change /veh PODN (11730768_x_at) / RFU LINC00158 (11744669_a_at) / Fold change /veh LINC00158 (11744669_a_at) / RFU DUSP10 (11751237_a_at) / Fold change /veh DUSP10 (11751237_a_at) / RFU ID3 (11757404_x_at) / Fold change /veh ID3 (11757404_x_at) / RFU PLEKHG5 (11737974_s_at) / Fold change /veh PLEKHG5 (11737974_s_at) / RFU LRRC4B (11730491_at) / Fold change /veh LRRC4B (11730491_at) / RFU GIMAP4 (11747438_a_at) / Fold change /veh GIMAP4 (11747438_a_at) / RFU KRT8 (11758183_x_at) / Fold change /veh KRT8 (11758183_x_at) / RFU CNN1 (11734310_a_at) / Fold change /veh CNN1 (11734310_a_at) / RFU VPS37D (11726825_at) / Fold change /veh VPS37D (11726825_at) / RFU C10orf10 (11716522_x_at) / Fold change /veh C10orf10 (11716522_x_at) / RFU KIR2DL2 /// KIR2DL4 /// KIR2DL5A /// KIR2DL5B /// KIR2DS1 /// KIR2DS2 /// KIR2DS3 /// KIR2DS4 /// KIR3DL3 /// KIR3DL3 /// KIR3DS1 (11738374_at) / Fold change /veh KIR2DL2 /// KIR2DL4 /// KIR2DL5A /// KIR2DL5B /// KIR2DS1 /// KIR2DS2 /// KIR2DS3 /// KIR2DS4 /// KIR3DL3 /// KIR3DL3 /// KIR3DS1 (11738374_at) / RFU C1QL1 (11718748_at) / Fold change /veh C1QL1 (11718748_at) / RFU TMPRSS4 (11747572_a_at) / Fold change /veh TMPRSS4 (11747572_a_at) / RFU HAMP (11756126_x_at) / Fold change /veh HAMP (11756126_x_at) / RFU RNFT2 (11725882_a_at) / Fold change /veh RNFT2 (11725882_a_at) / RFU NR4A2 (11747474_a_at) / Fold change /veh NR4A2 (11747474_a_at) / RFU ABCC12 (11746883_a_at) / Fold change /veh ABCC12 (11746883_a_at) / RFU TMEM136 (11760407_x_at) / Fold change /veh TMEM136 (11760407_x_at) / RFU CLDN22 /// WWC2 (11732394_at) / Fold change /veh CLDN22 /// WWC2 (11732394_at) / RFU HLA-DPB1 (11760878_x_at) / Fold change /veh HLA-DPB1 (11760878_x_at) / RFU SPINT1 (11716480_a_at) / Fold change /veh SPINT1 (11716480_a_at) / RFU GAP43 (11754022_s_at) / Fold change /veh GAP43 (11754022_s_at) / RFU A4GNT (11735810_at) / Fold change /veh A4GNT (11735810_at) / RFU PRB3 (11715151_x_at) / Fold change /veh PRB3 (11715151_x_at) / RFU TUBB4B (11761932_at) / Fold change /veh TUBB4B (11761932_at) / RFU CAPN14 (11732068_a_at) / Fold change /veh CAPN14 (11732068_a_at) / RFU TMCC2 (11721928_a_at) / Fold change /veh TMCC2 (11721928_a_at) / RFU IRGQ (11745062_a_at) / Fold change /veh IRGQ (11745062_a_at) / RFU FAM174B (11720279_a_at) / Fold change /veh FAM174B (11720279_a_at) / RFU TMPRSS4 (11748680_a_at) / Fold change /veh TMPRSS4 (11748680_a_at) / RFU FAM212B (11763350_a_at) / Fold change /veh FAM212B (11763350_a_at) / RFU PLEKHG5 (11743358_a_at) / Fold change /veh PLEKHG5 (11743358_a_at) / RFU ZSCAN30 (11745921_a_at) / Fold change /veh ZSCAN30 (11745921_a_at) / RFU CMKLR1 (11741424_a_at) / Fold change /veh CMKLR1 (11741424_a_at) / RFU LOC101060620 /// MAPK8IP1 (11723275_at) / Fold change /veh LOC101060620 /// MAPK8IP1 (11723275_at) / RFU SPTSSB (11747773_x_at) / Fold change /veh SPTSSB (11747773_x_at) / RFU PRSS12 (11739890_at) / Fold change /veh PRSS12 (11739890_at) / RFU BIN1 (11741810_x_at) / Fold change /veh BIN1 (11741810_x_at) / RFU WNT11 (11732464_a_at) / Fold change /veh WNT11 (11732464_a_at) / RFU C10orf10 (11716521_a_at) / Fold change /veh C10orf10 (11716521_a_at) / RFU C5orf56 (11738089_at) / Fold change /veh C5orf56 (11738089_at) / RFU CYB561 (11721691_x_at) / Fold change /veh CYB561 (11721691_x_at) / RFU ANKRD19P (11752326_a_at) / Fold change /veh ANKRD19P (11752326_a_at) / RFU OR2T12 /// OR2T33 /// OR2T8 (11738714_s_at) / Fold change /veh OR2T12 /// OR2T33 /// OR2T8 (11738714_s_at) / RFU VCAN (11748164_a_at) / Fold change /veh VCAN (11748164_a_at) / RFU JSRP1 (11732532_at) / Fold change /veh JSRP1 (11732532_at) / RFU KRTAP10-11 (11738290_x_at) / Fold change /veh KRTAP10-11 (11738290_x_at) / RFU MYO3A (11730013_a_at) / Fold change /veh MYO3A (11730013_a_at) / RFU EBF3 (11725865_a_at) / Fold change /veh EBF3 (11725865_a_at) / RFU CAMK2N1 (11719241_x_at) / Fold change /veh CAMK2N1 (11719241_x_at) / RFU C5orf56 (11738088_a_at) / Fold change /veh C5orf56 (11738088_a_at) / RFU OLFML3 (11715873_a_at) / Fold change /veh OLFML3 (11715873_a_at) / RFU LOC100653217 /// NTM (11731650_a_at) / Fold change /veh LOC100653217 /// NTM (11731650_a_at) / RFU MAPK11 (11762145_a_at) / Fold change /veh MAPK11 (11762145_a_at) / RFU FIZ1 (11724087_x_at) / Fold change /veh FIZ1 (11724087_x_at) / RFU OASL (11726364_x_at) / Fold change /veh OASL (11726364_x_at) / RFU SOX15 (11748057_x_at) / Fold change /veh SOX15 (11748057_x_at) / RFU CD79A (11719716_a_at) / Fold change /veh CD79A (11719716_a_at) / RFU HIST1H1D (11736915_at) / Fold change /veh HIST1H1D (11736915_at) / RFU CASKIN2 (11723855_a_at) / Fold change /veh CASKIN2 (11723855_a_at) / RFU LOC730098 (11760151_x_at) / Fold change /veh LOC730098 (11760151_x_at) / RFU OR4N2 (11742367_at) / Fold change /veh OR4N2 (11742367_at) / RFU PRRT2 (11749266_a_at) / Fold change /veh PRRT2 (11749266_a_at) / RFU SNX32 (11753110_a_at) / Fold change /veh SNX32 (11753110_a_at) / RFU CDHR5 (11726645_a_at) / Fold change /veh CDHR5 (11726645_a_at) / RFU RCAN1 (11760418_a_at) / Fold change /veh RCAN1 (11760418_a_at) / RFU FAM167A (11723789_a_at) / Fold change /veh FAM167A (11723789_a_at) / RFU FAM26E (11764081_at) / Fold change /veh FAM26E (11764081_at) / RFU ISYNA1 (11749810_s_at) / Fold change /veh ISYNA1 (11749810_s_at) / RFU ACY1 (11761880_at) / Fold change /veh ACY1 (11761880_at) / RFU 11764098_at / Fold change /veh 11764098_at / RFU SAMD14 (11745864_x_at) / Fold change /veh SAMD14 (11745864_x_at) / RFU NPB (11741838_a_at) / Fold change /veh NPB (11741838_a_at) / RFU TMPRSS6 (11731388_a_at) / Fold change /veh TMPRSS6 (11731388_a_at) / RFU KRTAP10-2 (11738614_at) / Fold change /veh KRTAP10-2 (11738614_at) / RFU ARHGAP8 /// PRR5-ARHGAP8 (11727945_x_at) / Fold change /veh ARHGAP8 /// PRR5-ARHGAP8 (11727945_x_at) / RFU KRTAP5-7 /// NADSYN1 (11734609_at) / Fold change /veh KRTAP5-7 /// NADSYN1 (11734609_at) / RFU RASL12 (11751679_a_at) / Fold change /veh RASL12 (11751679_a_at) / RFU CDKN2B (11736163_a_at) / Fold change /veh CDKN2B (11736163_a_at) / RFU PRF1 (11729649_at) / Fold change /veh PRF1 (11729649_at) / RFU, ZNF638 /// ZNF638-IT1 / Fold change vs veh, ZNF638 /// ZNF638-IT1 / RFU, PANK3 / Fold change vs veh, PANK3 / RFU, SH3YL1 / Fold change vs veh, SH3YL1 / RFU, ZEB2 / Fold change vs veh, ZEB2 / RFU, NRIP1 / Fold change vs veh, NRIP1 / RFU, PTTG1IP / Fold change vs veh, PTTG1IP / RFU, CAPN2 / Fold change vs veh, CAPN2 / RFU, MED14 / Fold change vs veh, MED14 / RFU, SNORA58 / Fold change vs veh, SNORA58 / RFU, C1orf63 / Fold change vs veh, C1orf63 / RFU, LRRFIP1 / Fold change vs veh, LRRFIP1 / RFU, NDUFAF7 / Fold change vs veh, NDUFAF7 / RFU, SLC12A2 / Fold change vs veh, SLC12A2 / RFU, IBTK / Fold change vs veh, IBTK / RFU, ESF1 / Fold change vs veh, ESF1 / Fold change vs veh, TMEM50B / RFU, TAOK1 / Fold change vs veh, TAOK1 / RFU, ACBD3 / Fold change vs veh, ACBD3 / RFU, TMA16 / Fold change vs veh, TMA16 / RFU, RWDD3 / Fold change vs veh, RWDD3 / RFU, BCAT1 / Fold change vs veh, BCAT1 / RFU, EDEM3 / Fold change vs veh, EDEM3 / RFU, TMEM33 / Fold change vs veh, TMEM33 / RFU, WDR75 / Fold change vs veh, WDR75 / RFU, AHCTF1 / Fold change vs veh, AHCTF1 / RFU, TFRC / Fold change vs veh, TFRC / RFU, ZDHHC17 / Fold change vs veh, ZDHHC17 / RFU, NOM1 / Fold change vs veh, NOM1 / RFU, ARL8B / Fold change vs veh, ARL8B / RFU, ZBTB11 / Fold change vs veh, ZBTB11 / RFU, TAMM41 / Fold change vs veh, TAMM41 / RFU, KIAA1704 /// LOC100996395 / Fold change vs veh, KIAA1704 /// LOC100996395 / RFU, ING1 / Fold change vs veh, ING1 / RFU, TRMT61B / Fold change vs veh, TRMT61B / RFU, FUBP3 / Fold change vs veh, FUBP3 / RFU, TP53 / Fold change vs veh, TP53 / RFU, TNKS2 / Fold change vs veh, TNKS2 / RFU, ZFP14 / Fold change vs veh, ZFP14 / RFU, ACTR2 / Fold change vs veh, ACTR2 / RFU, PPP3R1 / Fold change vs veh, PPP3R1 / RFU, PIK3R1 / Fold change vs veh, PIK3R1 / RFU, HNRNPA1 / Fold change vs veh, HNRNPA1 / RFU, RNF170 / Fold change vs veh, RNF170 / RFU, ZNF28 / Fold change vs veh, ZNF28 / RFU, RNGTT / Fold change vs veh, RNGTT / RFU, OGT / Fold change vs veh, OGT / RFU, BRD1 / Fold change vs veh, BRD1 / RFU, MARS / Fold change vs veh, MARS / RFU, ZNF655 / Fold change vs veh, ZNF655 / RFU, FAHD1 / Fold change vs veh, FAHD1 / RFU, BDP1 / Fold change vs veh, BDP1 / RFU, LRRCC1 / Fold change vs veh, LRRCC1 / RFU, ARID1A / Fold change vs veh, ARID1A / RFU, ZNF146 / Fold change vs veh, ZNF146 / RFU, ZNF330 / Fold change vs veh, ZNF330 / RFU, GPN3 / Fold change vs veh, GPN3 / RFU, C9orf123 / Fold change vs veh, C9orf123 / RFU, N4BP2L2 / Fold change vs veh, N4BP2L2 / RFU, ARFIP1 / Fold change vs veh, ARFIP1 / RFU, FAM179B / Fold change vs veh, FAM179B / RFU, BCL10 / Fold change vs veh, BCL10 / RFU, UHRF1BP1L / Fold change vs veh, UHRF1BP1L / RFU, BET1 / Fold change vs veh, BET1 / RFU, CNOT2 / Fold change vs veh, CNOT2 / RFU, ZNF268 / Fold change vs veh, ZNF268 / Fold change vs veh, ZNF507 / RFU, DGCR2 / Fold change vs veh, DGCR2 / RFU, WDSUB1 / Fold change vs veh, WDSUB1 / Fold change vs veh, HSP90B1 /// MIR3652 / RFU, ADSS / Fold change vs veh, ADSS / RFU, GK / Fold change vs veh, GK / RFU, ZNF148 / Fold change vs veh, ZNF148 / RFU, TAF9 / Fold change vs veh, TAF9 / RFU, SLC1A5 / Fold change vs veh, SLC1A5 / RFU, SLMO2 / Fold change vs veh, SLMO2 / RFU, ABCC4 / Fold change vs veh, ABCC4 / RFU, LOC101060439 /// RAP1B / Fold change vs veh, LOC101060439 /// RAP1B / RFU, RFX7 / Fold change vs veh, RFX7 / RFU, GTPBP10 / Fold change vs veh, GTPBP10 / RFU, CNEP1R1 / Fold change vs veh, CNEP1R1 / RFU, BIVM-ERCC5 /// ERCC5 / Fold change vs veh, BIVM-ERCC5 /// ERCC5 / RFU, ILF3 / Fold change vs veh, ILF3 / RFU 11762660_at / Fold change /veh 11762660_at / RFU VCAN (11757783_s_at) / Fold change /veh VCAN (11757783_s_at) / RFU DDX43 (11728927_at) / Fold change /veh DDX43 (11728927_at) / RFU KRT8 (11758188_x_at) / Fold change /veh KRT8 (11758188_x_at) / RFU NKD1 (11759106_at) / Fold change /veh NKD1 (11759106_at) / RFU SRD5A1 (11742802_a_at) / Fold change /veh SRD5A1 (11742802_a_at) / RFU TPSAB1 /// TPSB2 (11721975_s_at) / Fold change /veh TPSAB1 /// TPSB2 (11721975_s_at) / RFU GSTM3 (11746129_a_at) / Fold change /veh GSTM3 (11746129_a_at) / RFU IL23R (11737362_x_at) / Fold change /veh IL23R (11737362_x_at) / RFU TMEM51 (11727254_a_at) / Fold change /veh TMEM51 (11727254_a_at) / RFU PIWIL2 (11732686_x_at) / Fold change /veh PIWIL2 (11732686_x_at) / RFU ORM1 (11744905_x_at) / Fold change /veh ORM1 (11744905_x_at) / RFU CCDC152 (11743942_at) / Fold change /veh CCDC152 (11743942_at) / RFU ECM1 (11717891_a_at) / Fold change /veh ECM1 (11717891_a_at) / RFU IL23R (11748794_a_at) / Fold change /veh IL23R (11748794_a_at) / RFU TNFAIP8L3 (11732012_x_at) / Fold change /veh TNFAIP8L3 (11732012_x_at) / RFU MBOAT4 (11741988_at) / Fold change /veh MBOAT4 (11741988_at) / RFU 11764193_at / Fold change /veh 11764193_at / RFU TMEM53 (11763286_at) / Fold change /veh TMEM53 (11763286_at) / RFU MAGEB2 (11727129_at) / Fold change /veh MAGEB2 (11727129_at) / RFU TMEM200A (11744735_a_at) / Fold change /veh TMEM200A (11744735_a_at) / RFU CCDC152 (11751479_a_at) / Fold change /veh CCDC152 (11751479_a_at) / RFU FAM211A (11726209_a_at) / Fold change /veh FAM211A (11726209_a_at) / RFU RGS16 (11746705_a_at) / Fold change /veh RGS16 (11746705_a_at) / RFU VCAN (11755009_s_at) / Fold change /veh VCAN (11755009_s_at) / RFU RHOB (11743442_s_at) / Fold change /veh RHOB (11743442_s_at) / RFU RGS16 (11720943_a_at) / Fold change /veh RGS16 (11720943_a_at) / RFU RGS16 (11720944_at) / Fold change /veh RGS16 (11720944_at) / RFU, VPS4B / Fold change vs veh, VPS4B / RFU, CREB1 / Fold change vs veh, CREB1 / RFU, DNAJC13 / Fold change vs veh, DNAJC13 / RFU, GNAQ / Fold change vs veh, GNAQ / RFU, CDK5R1 / Fold change vs veh, CDK5R1 / RFU, ZRANB3 / Fold change vs veh, ZRANB3 / RFU, CUL4A / Fold change vs veh, CUL4A / RFU, CCNY / Fold change vs veh, CCNY / RFU, UFL1 / Fold change vs veh, UFL1 / RFU, COG3 / Fold change vs veh, COG3 / RFU, DIAPH2 / Fold change vs veh, DIAPH2 / RFU, SKA2 / Fold change vs veh, SKA2 / RFU, AFF3 / Fold change vs veh, AFF3 / RFU, LMF1 / Fold change vs veh, LMF1 / RFU, IPO11 / Fold change vs veh, IPO11 / RFU, DFFB / Fold change vs veh, DFFB / RFU, FOXP1 / Fold change vs veh, FOXP1 / RFU, CARD8 / Fold change vs veh, CARD8 / RFU, STRN3 / Fold change vs veh, STRN3 / RFU, ADK / Fold change vs veh, ADK / RFU, RASSF2 / Fold change vs veh, RASSF2 / RFU, WIPF1 / Fold change vs veh, WIPF1 / RFU, LARP1B / Fold change vs veh, LARP1B / RFU, RASA1 / Fold change vs veh, RASA1 / RFU, RB1 / Fold change vs veh, RB1 / RFU, PPFIA1 / Fold change vs veh, PPFIA1 / RFU, MAT2A / Fold change vs veh, MAT2A / RFU, CCT5 / Fold change vs veh, CCT5 / RFU, WDR92 / Fold change vs veh, WDR92 / RFU, CUX1 / Fold change vs veh, CUX1 / RFU, TTC7A / Fold change vs veh, TTC7A / RFU, TMEM135 / Fold change vs veh, TMEM135 / RFU, DEPTOR / Fold change vs veh, DEPTOR / RFU, CPM / Fold change vs veh, CPM / RFU, DNAJB6 / Fold change vs veh, DNAJB6 / RFU, CACNA2D3 / Fold change vs veh, CACNA2D3 / RFU, DTX4 / Fold change vs veh, DTX4 / RFU, TFCP2 / Fold change vs veh, TFCP2 / RFU, GMCL1 /// GMCL1P1 / Fold change vs veh, GMCL1 /// GMCL1P1 / RFU, AEBP2 / Fold change vs veh, AEBP2 / RFU, SNHG1 /// SNORD22 /// SNORD25 /// SNORD26 /// SNORD27 /// SNORD28 /// SNORD29 /// SNORD31 / Fold change vs veh, SNHG1 /// SNORD22 /// SNORD25 /// SNORD26 /// SNORD27 /// SNORD28 /// SNORD29 /// SNORD31 / Fold change (Aza/veh), C12orf56 (ProbeSet 11735607_a_at) / Fold change (ACY-1035/veh), C12orf56 (ProbeSet 11735607_a_at) / Fold change (Aza/veh), FGFR1OP (ProbeSet 11751329_s_at) / Fold change (ACY-1035/veh), FGFR1OP (ProbeSet 11751329_s_at) / Fold change (Aza/veh), VPS36 (ProbeSet 11739960_a_at) / Fold change (ACY-1035/veh), VPS36 (ProbeSet 11739960_a_at) / RFU SYPL1 (11715823_x_at) / Fold change /veh SYPL1 (11715823_x_at) / RFU IGFBP7 (11715501_s_at) / Fold change /veh IGFBP7 (11715501_s_at) / RFU REEP3 (11722064_at) / Fold change /veh REEP3 (11722064_at) / RFU IGLL1 (11728026_x_at) / Fold change /veh IGLL1 (11728026_x_at): dose or concentration left out as unconfirmed
# Conditions: MV-4-11 cells, 48 hours
structure (smiles),measurement,value
Nc1ncn([C@@H]2O[C@H](CO)[C@@H](O)[C@H]2O)c(=O)n1 [azacitidine],RFU DUSP10 (11751237_a_at),30.26 RFU

# — paper PMC5218480 (PLoS ONE, 2017)
